# Assay results: patent publication US20220401482A1, “GENERATION OF CD38 KNOCK-OUT PRIMARY AND EXPANDED HUMAN NK CELLS” (RESEARCH INSTITUTE AT NATIONWIDE CHILDREN'S HOSPITAL, priority 2019, published 2022)
# Tests used:
# NK cells [1] = assay: NK cell fratricide assay (viability of NK cells treated with anti-CD38 antibody); format: cell-based, human; conditions: DARA 48 hours with 50 nM ATRA
# Procedure: NK function assays. NK cell conjugation assay was performed as previously published and as detailed above. […] Flow-based killing assays were performed as detailed in Supplemental Methods. In brief, CD38^WT or CD38^KO NK cells were co-cultured with CFSE-labeled target MM cells for 4 or 24 hours in the presence of 10 μg/ml of DARA or solvent as control.
# […] Viable NK cells (PO-PRO™-1 negative/7-AAD negative) were assessed based on the frequency or absolute number using beads (Becton Dickinson Biosciences).
# MM cell lines = assay: Flow-based cytotoxicity / ADCC assay; format: cell-based, human
# Procedure: NK function assays. NK cell conjugation assay was performed as previously published and as detailed above. To quantify fratricide, CD38^WT and CD38^KO NK cells were each treated with 10 μg/ml of DARA or solvent control for 4 or 24 hours, then stained with PO-PRO™-1 dye (Invitrogen, Eugene, Oreg.) and 7-aminoactinomycin D (7-AAD) (Invitrogen, Eugene, Oreg.)^15. Flow-based killing assays were performed as detailed in Supplemental Methods. In brief, CD38^WT or CD38^KO NK cells were co-cultured with CFSE-labeled target MM cells for 4 or 24 hours in the presence of 10 μg/ml of DARA or solvent as control.
# (§1) To assess ADCC, MM cell lines or purified primary CD138^+ MM cells were labeled with 5 μM of CFSE and co-cultured with CD38^WT or CD38^KO NK cells at the indicated effector-to-target (E:T) ratios in flat bottom 96-well plates (Falcon, USA) in the presence of 10 μg/ml of DARA or solvent as control^38. […] The viability of target cells was analyzed after 4 hours for MM cell lines, and 24 hours for primary samples. In some experiments, myeloma cell lines were pretreated with 50 nM of ATRA for 2 days prior to 4-hour cytotoxicity assay. To study the effect of ATRA on overall DARA-mediated NK cell cytotoxicity, MM cells and NK cells were co-cultured for 48 hours in the presence of DARA and 50 nM of ATRA. Viable target cells were assessed from the percent or absolute number of 7-AAD negative/CFSE positive cells among total CFSE positive cells or using beads. Background was determined from the target cells incubated in the absence of effector cells and DARA. The percentage of DARA-mediated ADCC (%) was calculated according to the formula: (1−the percent or absolute number of viable target cells in the presence of effector cells with DARA/that of the corresponding sample with solvent control)×100. All assays were performed in triplicate with 2 or 3 independent donors.
# CD38 on MM cell lines = assay: CD38 expression on MM cell lines after ATRA; format: cell-based, human; conditions: pretreatment, 50 nM, 48 hours
# From the text: Control and ATRA treated samples are shown with black and gray line respectively. Unstained controls are depicted with filled histogram.
# CD38 on NK cells [2] = assay: CD38 expression on NK cells after ex vivo ATRA; format: cell-based, human; conditions: 50 nM, 48 hours
# Procedure: (§2) FIGS. 15A-15B show cytotoxicity and DARA-mediated ADCC activity of paired CD38^WT and CD38^KO NK cells against myeloma cell lines pretreated with 50 nM ATRA for 48 hours (mean±SD). […] Frozen peripheral blood mononuclear cells were thawed and analyzed at once. […] Control and ATRA treated samples are shown with black and gray line respectively. Unstained controls are depicted with filled histogram. […] FIGS. 15F-15G Cytotoxicity and DARA-mediated ADCC activity of paired CD38^WT and CD38^KO NK cells against myeloma cell lines in a 48 hour-cytotoxicity assay in the presence of 50 nM ATRA or solvent control. E:T ratio is 0.25:1 for MM.1S and 0.5:1 for KMS-11 (mean±SD).
# CD38 on NK cells [3] = assay: CD38 expression on PB-NK of APL patients during ATRA treatment; format: in vivo, human; conditions: consolidation therapy, versus prior to treatment
# Procedure: as §2
# H929 cell line = assay: Flow-based cytotoxicity assay; format: cell-based, human; conditions: absence of NK cells and complement, DARA 10 μg/ml, 4 hours
# Procedure: FIGS. 11A-11D show resistance of CD16^KO NK cells to DARA-induced fratricide.
# as §1
# NK cells [4] = conditions: patients; cited from earlier work
# [5] = concurrent treatment of MM and NK cells, 50 nM, 48 hours
compound,measurement,setting,value
"CC1=C(/C=C/C(C)=C/C=C/C(C)=C/C(=O)O)C(C)(C)CCC1 [ATRA, all-trans retinoic acid]",fratricide of CD38^WT NK cells,NK cells [1],enhanced fratricide
same,DARA-mediated ADCC,"MM cell lines; MM cells pretreated with ATRA, both CD38^WT and CD38^KO NK cells",improves DARA-mediated ADCC
same,DARA-mediated ADCC of CD38^KO NK cells,MM cell lines; [5],no impact
same,DARA-mediated ADCC of CD38^WT NK cells,MM cell lines; [5],significantly impaired
same,direct cytotoxicity of CD38^WT and paired CD38^KO NK cells,"MM cell lines; concurrent treatment, 50 nM, 48 hours",significantly reduced direct cytotoxicity
same,CD38 levels on MM target cells,CD38 on MM cell lines,up-regulates CD38 levels
same,CD38 levels on CD38^KO NK cells,CD38 on NK cells [2],not on the paired CD38^KO NK cells
same,CD38 levels on CD38^WT NK cells,CD38 on NK cells [2],up-regulates CD38 levels
same,CD38 on PB-NK of patients,CD38 on NK cells [3],significant up-regulation of CD38
DARA: monoclonal antibody targeting CD38,DARA-mediated lysis,H929 cell line,no DARA-mediated lysis
same,persistence of decrease in circulating NK cells after discontinuation of treatment,NK cells [4],3-6 months
